These results are taken from patent US20210252045A1, “Method for inactivating and removing disease-related levels of sulfane sulfur from affected biological tissues with special relevance to Covid-19 virus infection” (priority 2019, published 2021).

In data set [1] the test system is Rhinovirus of the common cold. The experiment in a line: Ingesting sulfite at first symptoms of the common cold (inventor's self-administration). In kind it is in vivo. Conditions: oral, 250 mg every 4 hours for 24 hours, started at first symptoms (within 48 hours); the inventor themself. The protocol:
It appears to be important that this be started within 48 hours of first appearance of the symptoms although data is lacking on using the agent later in the course of the infection. The stated quantities are effective but might be refined. The total quantity in the above example is equivalent to drinking 4 bottles of some wines or ingesting 500 gm of certain dried fruits. Application of this example to Covid 19 would be a first TREATMENT for this disease.

The conditions of data set [2]: sulfur dioxide gas in water at pH above 3; cited from earlier work.

Each structure is given as a SMILES string.

As to `O=S([O-])S(=O)(=O)[O-].[K+].[K+]` [K. metabisulfite], the “course of common cold symptoms after ingestion” value in data set [1] was “symptoms clear without progressing to a full cold”.

Regarding `O=S(O)O` [sulfurous acid], the pKa2 in data set [2] is roughly 7.
